Results on five molecules are retold here after ChEMBL document CHEMBL3632590, “Development of Safe and Effective Botanical Dietary Supplements” (J Med Chem, 2015).

The target of one series is Cytochrome P450 2D6 (Homo sapiens, UniProt P10635). Briefly: Competitive inhibition of CYP2D6 (unknown origin) using dextromethorphan substrate. Type of series: ADME.
Series [1] is described as follows: Oral bioavailability in human. Type of series: ADME, organism-based. The note with it: in vivo.
Series [2] in a line: Terminal half life in orally dosed human by LC-MS/MS method. Type of series: ADME, organism-based. The note with it: in vivo, po, read-out: beta t1/2.
Series [3] is described as follows: Terminal half life in human at 60 mg, po by LC-MS/MS method. The format is ADME, organism-based. As to conditions: in vivo, read-out: beta t1/2 (converted).

Sequence of Cytochrome P450 2D6 (P10635 whole entry): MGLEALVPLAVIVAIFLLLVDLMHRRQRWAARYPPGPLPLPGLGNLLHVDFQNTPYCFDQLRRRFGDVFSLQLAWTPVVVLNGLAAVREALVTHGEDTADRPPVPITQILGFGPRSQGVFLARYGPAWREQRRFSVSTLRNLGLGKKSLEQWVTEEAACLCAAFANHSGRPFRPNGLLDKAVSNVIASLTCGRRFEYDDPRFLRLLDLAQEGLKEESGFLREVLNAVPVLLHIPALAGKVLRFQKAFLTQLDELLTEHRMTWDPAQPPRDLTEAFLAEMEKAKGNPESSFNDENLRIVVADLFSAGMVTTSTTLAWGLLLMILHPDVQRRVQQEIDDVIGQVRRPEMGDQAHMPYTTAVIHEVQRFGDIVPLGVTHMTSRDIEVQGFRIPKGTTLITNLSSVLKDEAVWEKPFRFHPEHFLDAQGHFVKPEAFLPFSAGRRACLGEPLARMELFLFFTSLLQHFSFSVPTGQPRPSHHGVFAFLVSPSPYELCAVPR

On Cytochrome P450 2D6, `COc1ccc2c(c1OC)CN(C)CCc1cc3c(cc1C(=O)C2)OCO3` [ALLOCRYPTOPINE] returned a Ki of 122 nM.

For `COc1cc([C@H]2Oc3cc([C@H]4Oc5cc(O)cc(O)c5C(=O)[C@@H]4O)ccc3O[C@@H]2CO)ccc1O` [SILYBIN A], the bioavailability in series [1] is under 0.5%. Also, the half-life in series [2] was under 2 h.

In series [1], `COc1cc([C@@H]2Oc3cc([C@H]4Oc5cc(O)cc(O)c5C(=O)[C@@H]4O)ccc3O[C@H]2CO)ccc1O` [SILYBIN B] gave a bioavailability of under 0.5%. Moreover, in series [2], the half-life was under 2 h.

With `CC(C)=CCc1c(O)cc(O)c2c1OC(c1ccc(O)cc1)CC2=O` (configuration not stated) [SOPHORAFLAVANONE B], the half-life in series [3] was 20 h.

Turning to `COc1cc(O)c(CC=C(C)C)c(O)c1C(=O)/C=C/c1ccc(O)cc1` [XANTHOHUMOL], the half-life in series [3] was 20 h.
